The first assay concerns Influenza A virus. Nature of the assay: microbe, parasite or virus in culture. To be noted: A/WSN/1933(H1N1), MDCK.
Take `CCOC(=O)C1=C[C@@H](OC(CC)CC)[C@H](NC(C)=O)[C@@H](N)C1` [OSELTAMIVIR]: the IC50 came to 579 nM.

Molecule `CCC(CC)[C@H](NC(C)=O)[C@@H]1[C@H](O)[C@@H](C(=O)O)C[C@H]1NC(=N)N` [PERAMIVIR ANHYDROUS] registered an IC50 of 1720 nM.

A further assay addresses T1, Sialidase (Clostridium perfringens, UniProt P10481).
T1 sequence (P10481 whole entry): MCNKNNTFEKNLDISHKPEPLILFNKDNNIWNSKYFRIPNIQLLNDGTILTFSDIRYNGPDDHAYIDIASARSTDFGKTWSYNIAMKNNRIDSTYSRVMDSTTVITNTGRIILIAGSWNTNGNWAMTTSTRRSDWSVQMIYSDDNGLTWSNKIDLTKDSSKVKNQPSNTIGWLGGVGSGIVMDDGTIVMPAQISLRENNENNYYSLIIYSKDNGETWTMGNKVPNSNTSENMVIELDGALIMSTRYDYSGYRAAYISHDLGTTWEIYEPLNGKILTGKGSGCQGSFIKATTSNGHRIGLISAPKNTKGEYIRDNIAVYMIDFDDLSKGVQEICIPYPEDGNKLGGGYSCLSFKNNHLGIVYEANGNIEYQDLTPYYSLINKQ
Description: Inhibition of Clostridium perfringenes neuraminidase activity using 4-methylumbelliferyl-1-alpha-D-N-acetylneuramic acid sodium salt hydrate as substrate by fluorescence based assay. To be noted: read-out: IC50.
As to `CCOC(=O)C1=C[C@@H](OC(CC)CC)[C@H](NC(C)=O)[C@@H](N)C1` [OSELTAMIVIR], the IC50 amounted to 61100 nM.

`CCC(CC)[C@H](NC(C)=O)[C@@H]1[C@H](O)[C@@H](C(=O)O)C[C@H]1NC(=N)N` [PERAMIVIR ANHYDROUS]: the IC50 was determined as 39600 nM.

The same assay, now with this note: read-out: pIC50 (converted).
For `CCCN[C@@H]1C=C(C(=O)O)C[C@H](N)[C@H]1NC(C)=O`, the IC50 is 200 nM.

Regarding `CCCN(CC)[C@@H]1C=C(C(=O)O)C[C@H](N)[C@H]1NC(C)=O`, the IC50 was 89.9 nM.

Take `CCC(CC)N(C)[C@@H]1C=C(C(=O)O)C[C@H](N)[C@H]1NC(C)=O`: the IC50 was 6 nM.

On to `CCC(=O)N[C@@H]1C=C(C(=O)O)C[C@H](N)[C@H]1NC(C)=O`, for which the IC50 was 2700 nM.

Turning to `CCCCN(CC)[C@@H]1C=C(C(=O)O)C[C@H](N)[C@H]1NC(C)=O`, the IC50 was 84.9 nM.

`CC(=O)N[C@H]1[C@H](N(C)CCc2ccccc2)C=C(C(=O)O)C[C@@H]1N`: the IC50 is 100 nM.

Turning to `CC[C@@H](C)O[C@@H]1C=C(C(=O)O)C[C@H](NC(=N)N)[C@H]1NC(C)=O`, the IC50 was 0.5 nM.

In the case of `CC(=O)N[C@@H]1[C@@H](N)CC(C(=O)O)=C[C@H]1Oc1ccccc1`, the IC50 was 530 nM.

With `CCC(CC)O[C@@H]1C(F)=C(C(=O)O)C[C@H](N)[C@H]1NC(C)=O`, the IC50 was 3 nM.

On to `CCCCCCC[C@H](CC)O[C@@H]1C=C(C(=O)O)C[C@H](N)[C@H]1NC(C)=O`, for which the IC50 was 1 nM.

Consider `CC(=O)N[C@@H]1[C@@H](N)CC(C(=O)O)=C[C@H]1OCc1ccccc1`, for which the IC50 was 619 nM.

For `CCCO[C@@H]1C=C(C(=O)O)C[C@H](N=C(N)N)[C@H]1NC(C)=O`, the IC50 is 2 nM.

As for `C=CC[C@H](CC)O[C@@H]1C=C(C(=O)O)C[C@H](N)[C@H]1NC(C)=O`, the IC50 is 1 nM.

Consider `CC(=O)N[C@H]1[C@H](O)C=C(C(=O)O)C[C@@H]1N=C(N)N`, for which the IC50 is 100 nM.

With `CC[C@@H](CCC1CCCCC1)O[C@@H]1C=C(C(=O)O)C[C@H](N)[C@H]1NC(C)=O`, the IC50 was 1 nM.

For the molecule `CC(=O)N[C@@H]1[C@@H](N)CC(C(=O)O)=C[C@H]1NC(=O)C(C)C`, the IC50 is 6400 nM.

Consider `CC(=O)N[C@H]1[C@H](N(C)C2CCCCC2)C=C(C(=O)O)C[C@@H]1N`, for which the IC50 was 200 nM.

Take `CCC(CC)N[C@@H]1C=C(C(=O)O)C[C@H](N)[C@H]1NC(C)=O`: the IC50 is 11 nM.

`CC[C@H](C)O[C@@H]1C=C(C(=O)O)C[C@H](N)[C@H]1NC(C)=O`: the IC50 was 10 nM.

With `CC[C@H](C)O[C@@H]1C=C(C(=O)O)C[C@H](NC(=N)N)[C@H]1NC(C)=O`, the IC50 was 0.5 nM.

For `CC(=O)N[C@@H]1[C@@H](N)CC(C(=O)O)=C[C@H]1OC(C)C`, the IC50 is 180 nM.

Regarding `CCC(CC)C(=O)N[C@@H]1C=C(C(=O)O)C[C@H](N)[C@H]1NC(C)=O`, the IC50 is 4000 nM.

Take `CCCN(CCC)[C@@H]1C=C(C(=O)O)C[C@H](N)[C@H]1NC(C)=O`: the IC50 is 12 nM.

`CCCCN(C)[C@@H]1C=C(C(=O)O)C[C@H](N)[C@H]1NC(C)=O`: the IC50 is 180 nM.

Turning to `CC[C@@H](CC1CCCCC1)O[C@@H]1C=C(C(=O)O)C[C@H](N)[C@H]1NC(C)=O`, the IC50 is 16 nM.

`CC(=O)N[C@@H]1[C@@H](N)CC(C(=O)O)=C[C@H]1OCCC(F)(F)F`: the IC50 is 225 nM.

In the case of `CC(=O)N[C@@H]1[C@@H](N)CC(C(=O)O)=C[C@H]1OC1CCCC1`, the IC50 was 22 nM.

Regarding `COCO[C@@H]1C=C(C(=O)O)C[C@H](N)[C@H]1NC(C)=O`, the IC50 was 2000 nM.

For the molecule `CC[C@H](CCc1ccccc1)O[C@@H]1C=C(C(=O)O)C[C@H](N)[C@H]1NC(C)=O`, the IC50 was 12 nM.

Turning to `CC(=O)N[C@@H]1[C@@H](N)CC(C(=O)O)=C[C@H]1OCC(C)C`, the IC50 is 200 nM.

Regarding `CC(=O)N[C@@H]1[C@@H](N)CC(C(=O)O)=C[C@H]1OCCCc1ccc(-c2ccccc2)cc1`, the IC50 is 89.9 nM.

Take `CCC(CC)O[C@@H]1C=C(C(=O)O)C[C@H](NC(=N)N)[C@H]1NC(C)=O`: the IC50 was 0.5 nM.

On to `CCCCO[C@@H]1C=C(C(=O)O)C[C@H](N=C(N)N)[C@H]1NC(C)=O`, for which the IC50 was 3 nM.

(Values after ChEMBL document CHEMBL4184164, “Design, synthesis and biological evaluation of novel oseltamivir derivatives as potent neuraminidase inhibitors” (Bioorg Med Chem Lett, 2017).)
